Laboratory results from US20250326785A1, “SODIUM SALT AND ETHANOLAMINE SALT OF 23-HYDROXYTORMENTIC ACID” (HUYABIO International, LLC, priority 2024, published 2025).
“Also recorded” adds a separate entry of the source.

Tests used:
[1] = Single-dose IV and oral pharmacokinetic study in rabbits; assay type: in vivo, New Zealand White Rabbits; details: rabbit
From the text: Eight groups (n=3) of rabbits received single doses of HBI-3802 or the sodium salt (form 5) HBI-3808 either by intravenous dosing or by oral dosing. HBI-3802 was formulated in 20% PG +80% (20% Captisol in pH 7.4 PBS buffer), and HBI-3808 was formulated in 5% NMP+15% EtOH+10% Tween 80+70% (20% Captisol in pH 7.4 PBS buffer). In addition, normal or enteric coated capsules were used to orally deliver the sodium salt (form 5) of HBI-3808. To allow determination of oral absolute bioavailability, both HBI-3802 and HBI-3808 were delivered IV at a dose of 0.3 mg/kg and blood samples obtained at 0, 0.25, 0.5, 0.75, 1,2,4,8,12,24,48, and 72 hours after dosing for derivation of plasma used to determine plasma concentrations by LC-MS. The HBI-3802 0.3 mg/kg plasma concentrations were compared to plasma concentrations obtained at the same time points from rabbits receiving single oral doses of […] at 1 or 5 mg/kg. The HBI-3808 0.3 mg/kg plasma concentrations were compared to plasma concentrations from groups of rabbits receiving oral gavage of 1 mg/kg HBI-3808 solution or 5 mg/kg HBI-3808 solution and from rabbits receiving 5 mg/kg of the sodium salt (form 5) of HBI-3808 in normal capsules or in enteric coated capsules.

[2] = system: human embryonic stem cells (hESCs); test: Induction of differentiation of hESCs to cardiomyocytes; assay type: cell-based
Protocol: In order to test the effect of HBI-3808 on human embryonic stem cells (hESCs) on stimulating differentiation to cardiomyocytes (CMs), hESCs were incubated in the presence of media (see legend, FIG. 31) or 100 ng/ml HBI-3808.

[3] = system: Adult rats (Sprague Dawley) with MI by LAD ligation; test: Rat myocardial infarction model: pressure-volume catheter measurement; assay type: in vivo
From the text: (§1) Animal Model and Myocardial Infarction: Adult rats (Sprague Dawley (SD), body weight, -250 g) were used to generate a model with MI by LAD ligation of the heart as described in the previous study (Chongyu Zhang, Meng-Hsuan Hsieh, Song-Yi Wu, Shu-Hong Li, Jun Wu, Shi-Ming Liu, Hao-Ji Wei, Richard D. Weisel, Hsing-Wen Sung, Ren-Ke Li, “A self-doping conductive polymer hydrogel that can restore electrical impulse propagation at myocardial infarct to prevent cardiac arrhythmia and preserve ventricular function,” Biomaterials, Volume 231, 2020, 119672, ISSN 0142-9612). In brief, each rat was pre-medicated with 5% isoflurane in a chamber.
(§2) The selected rats having similar FS were randomly divided into 6 groups: (1) Negative control group (treated with 40% SBCD); (2) Positive control group (with HBI-3802, 2 mg/kg /day); (3) Dose 1 (HBI-3808 2 mg/kg/day); (4) Dose 2 (HBI-3808 0.64 mg/kg day); (5) Dose 3 (HBI-3808 0.2 mg/kg/day); and (6) Sham control (No myocardial infarction and treated with 40% SBCD).
Oral Treatment: Six days after permanent LAD ligation, the selected rats received the first daily treatment. HBI-3808 (at 1 of the 3 doses) or 3802 at 2 mg/kg/day (1 ml/rat/day) delivered by gastric gavage daily for 14 days (2). 40% SB-CD alone (1 ml/rat/day) was similarly administered to rats in the control and sham groups.
Pressure-Volume Measurement: End-point functional and morphological assessments were performed at 21 days after first treatment (27 days post myocardial infarction). Each rat was anesthetized as described above (Myocardial Infarction), and ventilated. The sternotomy was performed, and a calibrated Millar conductance pressure-volume catheter (Millar Instruments, USA) was inserted into the LV cavity through the apex. Pressure and volume data were collected with the Millar software. Parallel conductance was evaluated after the injection of hypertonic saline solution into the right jugular vein, with the volume measurements corrected for the parallel conductance. To analyze the LV pressure and volume relationship, pressure and volume data were acquired, and real-time pressure-volume loops were constructed. Stroke work (SW) and dP/dt max (indices of systolic function) and dP/dt min and Tau_w (index of diastolic function) as well as LV volumes were compared between the groups.

[4] = system: Adult rats (Sprague Dawley) with MI by LAD ligation; test: Rat myocardial infarction model: morphological studies (scar area and thickness, computed planimetry); assay type: in vivo; details: for scar areas: p<0.05 and 0.01 respectively
From the text: as §1, §2
Morphological Studies: After cardiac functional measurements, the animals were euthanized. The hearts were rapidly excised, fixed with 10% formaldehyde for 7 days, sliced into 2 mm thick slices, and photographed.
Cross-sectional areas of the left ventricular free wall (LVFW) and scar tissue were measured using computed planimetry. Surface areas of the epicardial LVFW and scar tissue were measured as the sum of the epicardial length multiplied by the slice thickness (2 mm). The surface area percentage of scar tissue in the LVFW was calculated as follows: [(epicardial scar area)/(epicardial LVFW area)×100]. The thickness of scar area was presented as an average of wall thickness measured at the middle and at each edge of the scar from the slice having the thinnest scar.

[5] = PO 5 mg/kg in enteric coated capsules
[6] = 2 mg/kg/day, vs 2 mg/kg HBI-3802, 0.64 and 0.2 mg/kg HBI-3808 and control, p<0.05 and 0.01
[7] = 0.2 mg/kg/day, control vs treated
[8] = 0.64 mg/kg/day, control vs treated

SMILES: CC1CCC2(C(=O)[O-])CCC3(C)C(=CCC4C5(C)CC(O)C(O)C(C)(CO)C5CCC43C)C2C1(C)O.[Na+] (centres unmarked) [HBI-3808 sodium salt of Pattern 5, sodium salt of 23-hydroxytormentic acid]
- bioavailability ([1]; PO 1 mg/kg in 5% NMP+15% EtOH+10% tween 80+70% (20% Captisol in pH 7.4 PBS buffer)): 17.9%
- bioavailability ([1]; PO 5 mg/kg in 5% NMP+15% EtOH+10% tween 80+70% (20% Captisol in pH 7.4 PBS buffer)): 27.7%
- absorption onset delayed until [1, 5]: 8 h
- bioavailability [1, 5]: 10.9%
- bioavailability ([1]; PO 5 mg/kg in normal capsules): 10.7%
- dose dependence of Cmax and AUC ([1]; PO 1 and 5 mg/kg solution): dose proportional increases with low variability

SMILES: C[C@@H]1CC[C@]2(C(=O)O)CC[C@]3(C)C(=CCC4[C@@]5(C)C[C@@H](O)[C@H](O)[C@@](C)(CO)C5CC[C@]43C)C2[C@]1(C)O (some centres unmarked) [HBI-3808, 23-hydroxytormentic acid]
- differentiation of hESCs to cardiomyocytes (CMs) ([2]; 100 ng/ml HBI-3808, day 13): successfully stimulated hESCs to differentiate into viable, beating CMs by day 13
- modulation of cardiac-associated genes ([2]; 100 ng/ml, days 1, 3, 6, 9, 13): produced detectable modulation of cardiac-associated genes
- cardiac diastolic function ([3]; 0.2 mg/kg/day, vs control at 21 days after treatment, p<0.01): better cardiac diastolic function compared with control group
- cardiac systolic function ([3]; 0.2 mg/kg/day, vs control at 21 days after treatment, p<0.05): better cardiac systolic function compared with control group
- left ventricular end systolic volumes (ESV) ([3]; 0.2 mg/kg/day, vs control, p<0.02): significantly smaller
- Left ventricular end diastolic volumes (EDV) ([3]; 0.64 mg/kg/day, vs 0.2 mg/kg group, p<0.01): significantly smaller
- stroke work (SW) and dP/dt max (indices of systolic function) ([3]; 2 mg/kg/day, 21 days after treatment, vs 2 mg/kg HBI-3802, 0.64 and 0.2 mg/kg HBI-3808 and control, p<0.01): significantly greater
- end diastolic volumes compared with non-infarcted sham animals ([3]; 2 mg/kg/day, Day 21): the same; also recorded: equivalent to non-infarcted sham animals
- dP/dt min and Tau_w (index of diastolic function) [3, 6]: also improved
- left ventricular end systolic volumes (ESV) [3, 6]: smaller
- Left ventricular end diastolic volumes (EDV) ([3]; 2 mg/kg/day, vs 0.64 and 0.2 mg/kg HBI-3808 and control, p<0.01): smaller
- scar thickness [4, 7]: thinner in the control group
- scar areas [4, 7]: larger in the control group
- scar thickness [4, 8]: thinner in the control group
- scar areas [4, 8]: larger in the control group
- scar thickness ([4]; 2 mg/kg/day, 21 days after first treatment): thinner in the control group
- scar (infarct) areas ([4]; 2 mg/kg/day, 21 days after first treatment, p<0.01): smaller infarct areas than the 2 mg/kg HBI-3802 group
